≈ marks a conversion by molar mass, not a printed value.
Tests used:
Klebsiella pneumoniae [1] = assay: Inhibition of OXA-48 in Klebsiella pneumoniae assessed as meropenem antibacterial activity at 4 ug/ml after 16 to 20 hrs by CLSI-based microbroth dilution method (Rvb >= […] ug/ml)
Escherichia coli [2] = assay: Inhibition of TEM/CTX-M/SHV/Cephalosporinase in Escherichia coli EC1552 assessed as cefepime antibacterial activity at 4 ug/ml after 16 to 20 hrs by CLSI-based microbroth dilution method (reference value: […] ug/ml)
Escherichia coli [3] = assay: Inhibition of TEM/CTX-M/SHV/Cephalosporinase in Escherichia coli CH1 assessed as cefepime antibacterial activity at 4 ug/ml after 16 to 20 hrs by CLSI-based microbroth dilution method (Rvb > […] ug/ml)
Klebsiella pneumoniae [4] = assay: Inhibition of TEM/CTX-M/SHV/KPC in Klebsiella pneumoniae 964-2 assessed as cefepime antibacterial activity at 4 ug/ml after 16 to 20 hrs by CLSI-based microbroth dilution method (Rvb > […] ug/ml)
Staphylococcus aureus = assay: Effect on growth of wild type Staphylococcus aureus ATCC 29213 after 16 to 20 hrs by CLSI-based microbroth dilution method; assay type: organism-based
Escherichia coli [5] = assay: Effect on growth of Escherichia coli J53 expressing SHV5/ AmpC/TEM-1 after 16 to 20 hrs by CLSI-based microbroth dilution method; assay type: organism-based; conditions: in vivo
Klebsiella pneumoniae [6] = assay: Effect on growth of Klebsiella pneumoniae 11978 expressing OXA-48 after 16 to 20 hrs by CLSI-based microbroth dilution method; assay type: organism-based; conditions: in vivo
Enterobacter cloacae = assay: Effect on growth of Enterobacter cloacae 144200 expressing p99 AmpC after 16 to 20 hrs by CLSI-based microbroth dilution method; assay type: organism-based; conditions: in vivo
Klebsiella aerogenes = assay: Effect on growth of Enterobacter aerogenes 188548 expressing AmpC after 16 to 20 hrs by CLSI-based microbroth dilution method; assay type: organism-based; conditions: in vivo
Pseudomonas aeruginosa [7] = assay: Effect on growth of wild type Pseudomonas aeruginosa 27853 after 16 to 20 hrs by CLSI-based microbroth dilution method; assay type: organism-based
Pseudomonas aeruginosa [8] = assay: Effect on growth of Pseudomonas aeruginosa Ps296 AmpC/VIM-2/TEM-1 after 16 to 20 hrs by CLSI-based microbroth dilution method; assay type: organism-based; conditions: in vivo
[9] = Cytotoxicity against human HeLa cells assessed as growth inhibition at 256 ug/ml relative to control; assay type: cell-based; conditions: read-out: Activity
[10] = Cytotoxicity against human MRC5 cells assessed as growth inhibition at 256 ug/ml relative to control; assay type: cell-based; conditions: read-out: Activity
[11] = Cytotoxicity against human Proximal tubule epithelial cells up to 1000 ug/ml relative to control; assay type: cell-based
Cathepsin G = Cathepsin G (Homo sapiens, UniProt P08311); assay: Inhibition of human cathepsin G at 100 uM
Sequence of Cathepsin G (P08311 whole entry): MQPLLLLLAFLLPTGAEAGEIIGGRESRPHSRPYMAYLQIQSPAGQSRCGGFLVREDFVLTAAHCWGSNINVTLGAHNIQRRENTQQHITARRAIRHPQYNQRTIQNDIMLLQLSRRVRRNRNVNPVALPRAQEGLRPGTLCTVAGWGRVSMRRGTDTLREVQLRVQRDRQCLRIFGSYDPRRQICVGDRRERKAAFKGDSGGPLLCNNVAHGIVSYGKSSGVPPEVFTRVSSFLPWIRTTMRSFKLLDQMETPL

Chymotrypsin = Chymotrypsin (Homo sapiens, UniProt Q99895+P17538+P40313+Q6GPI1); assay: Inhibition of human chymotrypsin at 100 uM; assay type: protein assay
Trypsin = Trypsin (Homo sapiens, UniProt P07477+P07478+P35030); assay: Inhibition of human trypsin at 100 uM; assay type: protein assay
Neutrophil elastase = Neutrophil elastase (Homo sapiens, UniProt P08246); assay: Inhibition of human neutrophil elastase 2 at 100 uM
Sequence of Neutrophil elastase (P08246 whole entry): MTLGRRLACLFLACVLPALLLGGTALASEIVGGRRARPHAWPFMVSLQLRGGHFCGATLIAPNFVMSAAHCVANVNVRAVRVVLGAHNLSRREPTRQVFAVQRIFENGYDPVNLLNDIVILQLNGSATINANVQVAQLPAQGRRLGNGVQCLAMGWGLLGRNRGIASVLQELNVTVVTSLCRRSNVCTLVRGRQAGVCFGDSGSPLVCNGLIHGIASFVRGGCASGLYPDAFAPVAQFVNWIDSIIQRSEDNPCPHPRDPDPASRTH

[12] = target: Matrix metalloproteinase-9 (Homo sapiens, UniProt P14780); assay: Inhibition of human MMP9 at 100 uM
Sequence of Matrix metalloproteinase-9 (P14780 whole entry): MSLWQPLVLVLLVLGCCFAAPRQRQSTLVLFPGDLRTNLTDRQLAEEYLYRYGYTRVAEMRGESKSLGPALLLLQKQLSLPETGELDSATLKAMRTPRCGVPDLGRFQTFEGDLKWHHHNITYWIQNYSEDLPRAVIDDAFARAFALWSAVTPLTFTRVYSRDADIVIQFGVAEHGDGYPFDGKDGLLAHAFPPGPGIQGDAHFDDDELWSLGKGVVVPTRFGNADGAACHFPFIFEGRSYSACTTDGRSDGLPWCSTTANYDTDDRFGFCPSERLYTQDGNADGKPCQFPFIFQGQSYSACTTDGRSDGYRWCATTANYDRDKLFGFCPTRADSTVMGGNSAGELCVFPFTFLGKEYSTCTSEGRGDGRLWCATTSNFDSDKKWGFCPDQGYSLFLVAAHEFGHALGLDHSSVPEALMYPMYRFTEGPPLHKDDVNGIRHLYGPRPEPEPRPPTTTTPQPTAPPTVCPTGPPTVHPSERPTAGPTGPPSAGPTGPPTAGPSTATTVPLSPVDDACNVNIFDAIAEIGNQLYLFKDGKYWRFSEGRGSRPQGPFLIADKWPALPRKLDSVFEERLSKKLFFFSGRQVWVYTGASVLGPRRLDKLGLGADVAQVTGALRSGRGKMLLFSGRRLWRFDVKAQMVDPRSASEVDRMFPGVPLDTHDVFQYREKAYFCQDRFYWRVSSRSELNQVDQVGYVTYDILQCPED

Cytochrome P450 1A2 = Cytochrome P450 1A2 (Homo sapiens, UniProt P05177); assay: Inhibition of human CYP1A2 at 100 uM; assay type: ADME
Sequence of Cytochrome P450 1A2 (P05177 whole entry): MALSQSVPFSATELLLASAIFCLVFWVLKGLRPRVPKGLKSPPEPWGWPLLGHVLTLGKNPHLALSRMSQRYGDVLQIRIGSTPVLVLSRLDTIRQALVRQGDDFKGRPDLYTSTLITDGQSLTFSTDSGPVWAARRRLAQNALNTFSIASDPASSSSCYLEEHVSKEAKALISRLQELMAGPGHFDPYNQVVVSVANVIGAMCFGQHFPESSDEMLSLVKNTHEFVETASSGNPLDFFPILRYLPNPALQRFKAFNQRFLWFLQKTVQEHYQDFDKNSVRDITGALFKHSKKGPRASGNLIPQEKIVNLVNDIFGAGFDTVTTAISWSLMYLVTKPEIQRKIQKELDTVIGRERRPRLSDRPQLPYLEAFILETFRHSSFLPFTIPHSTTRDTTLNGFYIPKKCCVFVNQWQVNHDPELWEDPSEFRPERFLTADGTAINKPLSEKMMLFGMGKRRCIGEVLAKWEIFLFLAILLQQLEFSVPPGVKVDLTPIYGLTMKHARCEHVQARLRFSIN

Cytochrome P450 3A4 = Cytochrome P450 3A4 (Homo sapiens, UniProt P08684); assay: Inhibition of human CYP3A4 at 100 uM; assay type: ADME
Sequence of Cytochrome P450 3A4 (P08684 whole entry): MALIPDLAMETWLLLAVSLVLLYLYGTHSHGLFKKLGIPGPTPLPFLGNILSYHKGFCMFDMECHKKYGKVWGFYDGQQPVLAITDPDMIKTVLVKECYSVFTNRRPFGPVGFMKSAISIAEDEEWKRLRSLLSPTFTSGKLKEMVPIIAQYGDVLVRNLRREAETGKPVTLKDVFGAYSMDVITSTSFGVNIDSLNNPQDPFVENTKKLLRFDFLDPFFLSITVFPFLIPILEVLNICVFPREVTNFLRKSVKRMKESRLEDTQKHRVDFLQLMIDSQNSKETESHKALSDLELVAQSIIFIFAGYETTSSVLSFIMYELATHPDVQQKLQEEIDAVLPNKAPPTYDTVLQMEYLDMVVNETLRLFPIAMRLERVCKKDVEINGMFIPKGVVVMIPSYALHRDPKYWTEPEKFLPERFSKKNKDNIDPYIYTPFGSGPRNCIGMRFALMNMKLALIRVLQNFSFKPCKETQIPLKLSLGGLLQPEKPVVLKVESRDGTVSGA

Klebsiella pneumoniae [13] = assay: Antibacterial activity against Klebsiella pneumoniae UNT-065-1 expressing CTX-M14 infected in CD1 mouse assessed as log reduction in viable bacterial count in lung at 16 mg/kg, sc administered as single dose co-treated with 32 mg/kg cefepime and measured after 24 hrs post infection (reference value: 9.27 +/- 0.21); assay type: functional

SMILES: NCCN[C@H]1CC[C@H](CC(=O)N[C@H]2Cc3cccc(C(=O)O)c3OB2O)CC1
- MIC (Klebsiella pneumoniae [1]): 2 µg/mL (≈ 5.14 µM)
- MIC (Escherichia coli [2]): 0.5 µg/mL (≈ 1.28 µM)
- MIC (Escherichia coli [3]): < 0.125 µg/mL
- MIC (Klebsiella pneumoniae [4]): < 0.125 µg/mL
- MIC (Staphylococcus aureus): > 128 µg/mL
- MIC (Escherichia coli [5]): > 128 µg/mL
- MIC (Klebsiella pneumoniae [6]): > 128 µg/mL
- MIC (Enterobacter cloacae): > 128 µg/mL
- MIC (Klebsiella aerogenes): > 128 µg/mL
- MIC (Pseudomonas aeruginosa [7]): > 128 µg/mL
- MIC (Pseudomonas aeruginosa [8]): > 128 µg/mL
- inhibition at 256 ug/ml [9]: < 20%
- inhibition at 256 ug/ml [10]: < 20%
- Activity [11]: Non-Toxic
- inhibition (INH) (Cathepsin G): Not Active
- inhibition (INH) (Chymotrypsin): Not Active
- inhibition (INH) (Trypsin): Not Active
- inhibition (INH) (Neutrophil elastase): Not Active
- inhibition (INH) [12]: Not Active
- inhibition (INH) (Cytochrome P450 1A2): Not Active
- inhibition (INH) (Cytochrome P450 3A4): Not Active
- Activity (Klebsiella pneumoniae [13]): 4.51 log10CFU

Reference: ChEMBL document CHEMBL4354828, “Discovery of Taniborbactam (VNRX-5133): A Broad-Spectrum Serine- and Metallo-β-lactamase Inhibitor for Carbapenem-Resistant Bacterial Infections” (J Med Chem, 2020)
